Source: ChEMBL document CHEMBL5126637, “Discovery of Phenolic Matrix Metalloproteinase Inhibitors by Peptide Microarray for Osteosarcoma Treatment” (J Nat Prod, 2022)
The source made the active and inactive calls. The calls are words filed in the database; no cut-off is given here.

Assays:
U2OS [1] = test: Antitumor activity against human U2OS cells xenografted in NOD/SCID mouse assessed as inhibition of growth of both primary and metastatic tumors at 34 ug, iv dosed once every 2 days for 6 days successively relative to control; format: functional, organism-based; details: dose 34.0 µg, time 6.0 day
U2OS [2] = test: Antitumor activity against human U2OS cells xenografted in NOD/SCID mouse assessed as time duration with 100% survival with at 34 ug, iv dosed once every 2 days for 6 days successively relative to control; format: functional; details: dose 34 µg, time 6 day
U2OS [3] = test: Antitumor activity against human U2OS cells xenografted in NOD/SCID mouse assessed as inhibition of tumor growth at 34 ug, iv dosed once every 2 days for 6 days successively relative to control; format: functional; details: dose 34 µg, time 6 day
Collagenase 3 [4] = target: T1, Collagenase 3 (Homo sapiens, UniProt P45452); test: Inhibition of MMP13 in human U2OS cells at 5 umol/L by peptide microarray-based fluorescence assay; format: cell-based; details: dose 5.0 µmol/L
[5] = Toxicity in human U2OS cells assessed as cell viability at 2.5 umol/L incubated for 24 hrs by MTT assay relative to control; format: cell-based; details: dose 2.5 µmol/L, read-out: Activity
[6] = Toxicity in human HEK293T cells assessed as cell viability at 2.5 umol/L incubated for 24 hrs by MTT assay relative to control; format: cell-based, HEK-293T; details: dose 2.5 µmol/L, read-out: Activity
Collagenase 3 [7] = target: T1, Collagenase 3; test: Inhibition of MMP13 in human U2OS cells by peptide microarray-based fluorescence assay; format: cell-based
Collagenase 3 [8] = target: T1, Collagenase 3; test: Inhibition of MMP13 in human U2OS cells at 1 umol/L by peptide microarray-based fluorescence assay; format: cell-based; details: dose 1.0 µmol/L
U2OS [9] = test: Inhibition of cell migration of human U2OS cells at 2.5 umol/L incubated for 24 hrs by would healing assay; format: functional, cell-based; details: dose 2.5 µmol/L
[10] = Toxicity in human HL7702 cells assessed as cell viability at 2.5 umol/L incubated for 24 hrs by MTT assay relative to control; format: cell-based, L02; details: dose 2.5 µmol/L, read-out: Activity
[11] = Toxicity in human NCM460 cells assessed as cell viability at 2.5 umol/L incubated for 24 hrs by MTT assay relative to control; format: cell-based; details: dose 2.5 µmol/L, read-out: Activity
[12] = target: T2, Matrix metalloproteinase-9 (Homo sapiens, UniProt P14780); test: Inhibition of MMP9 in human U2OS cells at 5 umol/L by peptide microarray-based fluorescence assay; format: cell-based; details: dose 5.0 µmol/L
[13] = Toxicity in Kunming mouse assessed as induction of adverse effect or tissue damage in major organs measured after 14 days; details: in vivo, 336 h, time 14 day
[14] = Toxicity in Kunming mouse assessed as effect on body weight changes measured after 14 days; details: in vivo, 336 h, time 14 day
U2OS [15] = test: Antitumor activity against human U2OS cells xenografted in NOD/SCID mouse assessed as inhibition of distant organ metastasis at 34 ug, iv dosed once every 2 days for 6 days successively relative to control; format: functional, organism-based; details: dose 34.0 µg, time 6.0 day
[16] = Toxicity in human MDA-MB-231 cells assessed as cell viability at 2.5 umol/L incubated for 24 hrs by MTT assay relative to control; format: cell-based; details: dose 2.5 µmol/L, read-out: Activity
[17] = Toxicity in human MCF7 cells assessed as cell viability at 2.5 umol/L incubated for 24 hrs by MTT assay relative to control; format: cell-based; details: dose 2.5 µmol/L, read-out: Activity
[18] = Toxicity in human HCT-116 cells assessed as cell viability at 2.5 umol/L incubated for 24 hrs by MTT assay relative to control; format: cell-based; details: dose 2.5 µmol/L, read-out: Activity
[19] = Toxicity in Kunming mouse assessed as effect on blood components measured after 14 days; details: in vivo, 336 h, time 14 day
[20] = target: T2, Matrix metalloproteinase-9; test: Inhibition of MMP9 in human U2OS cells by peptide microarray-based fluorescence assay; format: cell-based
[21] = target: T3, Matrilysin (Homo sapiens) (UniProt P09237); test: Inhibition of MMP7 in human U2OS cells at 5 umol/L by peptide microarray-based fluorescence assay; format: cell-based; details: dose 5.0 µmol/L
T3 sequence (whole entry): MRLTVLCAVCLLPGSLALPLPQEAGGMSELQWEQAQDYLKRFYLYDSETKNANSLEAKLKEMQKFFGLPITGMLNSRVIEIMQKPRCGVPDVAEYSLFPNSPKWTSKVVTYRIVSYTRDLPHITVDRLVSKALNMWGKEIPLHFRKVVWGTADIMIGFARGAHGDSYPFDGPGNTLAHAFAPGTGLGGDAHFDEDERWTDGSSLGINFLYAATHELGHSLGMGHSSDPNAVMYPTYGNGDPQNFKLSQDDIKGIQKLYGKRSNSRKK

Stromelysin-1 [22] = target: T4, Stromelysin-1 (Homo sapiens, UniProt P08254); test: Inhibition of MMP3 in human U2OS cells at 1 umol/L by peptide microarray-based fluorescence assay; format: cell-based; details: dose 1.0 µmol/L
Target sequence in this assay (P08254 100-477 limits assumed): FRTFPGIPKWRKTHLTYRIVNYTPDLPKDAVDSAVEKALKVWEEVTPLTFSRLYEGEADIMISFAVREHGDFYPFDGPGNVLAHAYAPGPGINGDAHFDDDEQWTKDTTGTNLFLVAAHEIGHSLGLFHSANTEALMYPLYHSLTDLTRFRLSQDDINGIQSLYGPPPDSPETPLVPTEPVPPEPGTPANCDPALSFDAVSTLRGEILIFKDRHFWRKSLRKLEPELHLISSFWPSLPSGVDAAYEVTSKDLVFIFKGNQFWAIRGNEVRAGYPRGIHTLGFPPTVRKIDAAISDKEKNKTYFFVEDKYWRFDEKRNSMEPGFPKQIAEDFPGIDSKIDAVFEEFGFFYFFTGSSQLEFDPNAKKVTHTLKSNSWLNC

Matrilysin = target: T5, Matrilysin (Homo sapiens, UniProt P09237); test: Inhibition of MMP7 in human U2OS cells by peptide microarray-based fluorescence assay; format: cell-based
T5 sequence (P09237 whole entry): T3 sequence (whole entry)

U2OS [23] = test: Antitumor activity against human U2OS cells xenografted in NOD/SCID mouse assessed as inhibition of tumor growth at 100 mg/kg, po dosed once every 2 days for 2 weeks relative to control; format: functional; details: 1008 h, time 6 weeks, read-out: TGI
U2OS [24] = test: Antitumor activity against human U2OS cells xenografted in NOD/SCID mouse assessed as time duration with 100% survival with at 18 ug, iv dosed once every 2 days for 6 days successively relative to control; format: functional; details: dose 18 µg, time 6 day
[25] = target: T6, 72 kDa type IV collagenase (Homo sapiens, UniProt P08253); test: Inhibition of MMP2 in human U2OS cells at 5 umol/L by peptide microarray-based fluorescence assay; format: cell-based; details: dose 5.0 µmol/L
Target sequence in this assay (P08253 110-660 limits assumed): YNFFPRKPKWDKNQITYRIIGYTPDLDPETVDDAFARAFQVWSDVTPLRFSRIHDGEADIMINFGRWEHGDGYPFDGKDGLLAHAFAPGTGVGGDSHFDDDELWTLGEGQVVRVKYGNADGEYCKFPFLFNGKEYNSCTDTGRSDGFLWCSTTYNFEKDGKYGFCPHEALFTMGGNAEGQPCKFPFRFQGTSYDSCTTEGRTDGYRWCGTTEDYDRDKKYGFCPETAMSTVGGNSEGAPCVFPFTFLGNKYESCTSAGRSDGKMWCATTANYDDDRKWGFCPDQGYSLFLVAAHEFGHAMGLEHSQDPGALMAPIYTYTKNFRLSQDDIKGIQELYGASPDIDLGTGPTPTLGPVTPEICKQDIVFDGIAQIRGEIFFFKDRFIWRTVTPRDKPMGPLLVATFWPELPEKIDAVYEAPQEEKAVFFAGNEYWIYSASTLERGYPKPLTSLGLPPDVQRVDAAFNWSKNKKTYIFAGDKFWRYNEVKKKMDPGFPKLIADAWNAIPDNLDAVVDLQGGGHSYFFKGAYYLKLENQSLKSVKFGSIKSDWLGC

U2OS [26] = test: Antitumor activity against human U2OS cells xenografted in NOD/SCID mouse assessed as inhibition of tumor growth at 18 ug, iv dosed once every 2 days for 6 days successively relative to control; format: functional; details: dose 18 µg, time 6 day
U2OS [27] = test: Antitumor activity against human U2OS cells xenografted in NOD/SCID mouse assessed as inhibition of distant organ metastasis at 18 ug, iv dosed once every 2 days for 6 days successively relative to control; format: functional, organism-based; details: dose 18.0 µg, time 6.0 day
Stromelysin-1 [28] = target: T4, Stromelysin-1; test: Inhibition of MMP3 in human U2OS cells by peptide microarray-based fluorescence assay; format: cell-based
Target sequence in this assay (P08254 whole entry): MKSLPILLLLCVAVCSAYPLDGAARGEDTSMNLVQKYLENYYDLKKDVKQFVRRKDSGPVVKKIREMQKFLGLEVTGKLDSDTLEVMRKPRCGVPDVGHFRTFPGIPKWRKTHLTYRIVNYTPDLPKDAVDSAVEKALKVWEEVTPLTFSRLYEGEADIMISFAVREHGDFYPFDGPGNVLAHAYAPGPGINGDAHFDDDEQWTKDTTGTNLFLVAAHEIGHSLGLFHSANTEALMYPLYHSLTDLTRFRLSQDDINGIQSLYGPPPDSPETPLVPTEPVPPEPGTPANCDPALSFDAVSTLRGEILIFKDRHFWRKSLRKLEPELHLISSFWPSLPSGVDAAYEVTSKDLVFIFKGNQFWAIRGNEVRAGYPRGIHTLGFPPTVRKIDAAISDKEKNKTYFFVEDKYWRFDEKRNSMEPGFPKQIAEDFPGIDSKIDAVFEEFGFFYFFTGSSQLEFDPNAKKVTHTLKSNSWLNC

[29] = target: T7, Interstitial collagenase (Homo sapiens) (UniProt P03956); test: Inhibition of MMP1 in human U2OS cells at 5 umol/L by peptide microarray-based fluorescence assay; format: cell-based; details: dose 5.0 µmol/L
T7 sequence (whole entry): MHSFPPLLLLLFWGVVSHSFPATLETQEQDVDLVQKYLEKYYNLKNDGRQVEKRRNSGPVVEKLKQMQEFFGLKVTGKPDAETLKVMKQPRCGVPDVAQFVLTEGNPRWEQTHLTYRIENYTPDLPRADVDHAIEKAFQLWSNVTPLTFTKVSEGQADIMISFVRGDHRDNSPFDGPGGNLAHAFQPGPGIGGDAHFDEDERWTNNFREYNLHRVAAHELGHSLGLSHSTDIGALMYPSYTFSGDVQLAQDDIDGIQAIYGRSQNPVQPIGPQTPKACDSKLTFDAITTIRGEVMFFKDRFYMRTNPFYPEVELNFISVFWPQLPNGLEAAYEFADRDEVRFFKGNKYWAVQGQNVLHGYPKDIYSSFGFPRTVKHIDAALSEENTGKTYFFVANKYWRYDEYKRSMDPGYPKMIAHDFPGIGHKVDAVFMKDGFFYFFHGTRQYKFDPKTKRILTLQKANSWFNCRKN

[30] = target: T7, Interstitial collagenase (Homo sapiens); test: Inhibition of MMP1 in human U2OS cells at 1 umol/L by peptide microarray-based fluorescence assay; format: cell-based; details: dose 1.0 µmol/L
Stromelysin-1 [31] = target: T4, Stromelysin-1; test: Inhibition of MMP3 in human U2OS cells at 5 umol/L by peptide microarray-based fluorescence assay; format: cell-based; details: dose 5.0 µmol/L
Target sequence in this assay (P08254 100-477 limits assumed): as the sequence (P08254 100-477 limits assumed) above

[32] = target: T2, Matrix metalloproteinase-9; test: Inhibition of MMP9 in human U2OS cells at 1 umol/L by peptide microarray-based fluorescence assay; format: cell-based; details: dose 1.0 µmol/L
[33] = target: T6, 72 kDa type IV collagenase; test: Inhibition of MMP2 in human U2OS cells at 1 umol/L by peptide microarray-based fluorescence assay; format: cell-based; details: dose 1.0 µmol/L
Target sequence in this assay (P08253 110-660 limits assumed): as the sequence (P08253 110-660 limits assumed) above

Interstitial collagenase = target: T8, Interstitial collagenase (Homo sapiens, UniProt P03956); test: Inhibition of MMP1 in human U2OS cells by peptide microarray-based fluorescence assay; format: cell-based
T8 sequence (P03956 whole entry): T7 sequence (whole entry)

[34] = target: T3, Matrilysin (Homo sapiens); test: Inhibition of MMP7 in human U2OS cells at 1 umol/L by peptide microarray-based fluorescence assay; format: cell-based; details: dose 1.0 µmol/L
[35] = target: T6, 72 kDa type IV collagenase; test: Inhibition of MMP2 in human U2OS cells by peptide microarray-based fluorescence assay; format: cell-based
Target sequence in this assay (P08253 whole entry): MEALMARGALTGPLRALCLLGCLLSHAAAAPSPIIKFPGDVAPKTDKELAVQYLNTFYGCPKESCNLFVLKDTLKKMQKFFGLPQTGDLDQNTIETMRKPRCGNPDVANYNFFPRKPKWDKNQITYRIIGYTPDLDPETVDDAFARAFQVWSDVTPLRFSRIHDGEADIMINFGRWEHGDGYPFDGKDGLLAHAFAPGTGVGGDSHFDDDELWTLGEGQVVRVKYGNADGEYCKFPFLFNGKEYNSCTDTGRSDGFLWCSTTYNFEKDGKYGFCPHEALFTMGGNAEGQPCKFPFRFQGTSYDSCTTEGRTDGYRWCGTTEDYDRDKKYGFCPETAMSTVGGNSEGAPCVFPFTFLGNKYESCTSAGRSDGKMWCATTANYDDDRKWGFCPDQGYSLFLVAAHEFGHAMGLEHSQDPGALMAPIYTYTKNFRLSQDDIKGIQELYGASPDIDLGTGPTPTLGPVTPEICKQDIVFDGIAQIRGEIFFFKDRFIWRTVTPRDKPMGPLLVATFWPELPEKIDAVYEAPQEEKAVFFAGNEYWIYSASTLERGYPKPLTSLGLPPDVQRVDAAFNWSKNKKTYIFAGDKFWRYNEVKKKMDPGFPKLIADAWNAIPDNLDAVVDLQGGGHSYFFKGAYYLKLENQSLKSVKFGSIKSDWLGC

U2OS [36] = test: Antitumor activity against human U2OS cells xenografted in NOD/SCID mouse assessed as inhibition of growth of both primary and metastatic tumors at 18 ug, iv dosed once every 2 days for 6 days successively relative to control; format: functional, organism-based; details: dose 18.0 µg, time 6.0 day

T2 sequence (P14780 whole entry): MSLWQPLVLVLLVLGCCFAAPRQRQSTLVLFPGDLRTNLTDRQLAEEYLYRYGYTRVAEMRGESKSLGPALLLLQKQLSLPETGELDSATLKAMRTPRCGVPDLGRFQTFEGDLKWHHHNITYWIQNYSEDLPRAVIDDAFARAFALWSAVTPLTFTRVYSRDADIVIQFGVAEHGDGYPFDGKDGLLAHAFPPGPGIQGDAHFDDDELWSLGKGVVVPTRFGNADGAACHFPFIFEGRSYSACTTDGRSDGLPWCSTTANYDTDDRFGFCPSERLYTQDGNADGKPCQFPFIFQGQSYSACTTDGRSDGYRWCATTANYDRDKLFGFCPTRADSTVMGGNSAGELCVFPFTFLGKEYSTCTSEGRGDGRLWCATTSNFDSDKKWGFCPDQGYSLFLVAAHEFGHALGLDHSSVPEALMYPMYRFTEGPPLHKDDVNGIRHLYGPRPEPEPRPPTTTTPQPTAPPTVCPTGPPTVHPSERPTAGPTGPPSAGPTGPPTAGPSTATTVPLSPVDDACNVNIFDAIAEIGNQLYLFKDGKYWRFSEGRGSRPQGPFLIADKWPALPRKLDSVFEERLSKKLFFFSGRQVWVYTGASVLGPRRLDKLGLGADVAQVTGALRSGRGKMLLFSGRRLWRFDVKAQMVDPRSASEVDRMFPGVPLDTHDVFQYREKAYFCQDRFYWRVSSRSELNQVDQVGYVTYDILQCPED

Compound | inhibition (Collagenase 3 [4]) [%] | viability at 24 h, 2.5 µM [5] [%] | viability at 24 h, 2.5 µM [6] [%] | IC50 (Collagenase 3 [7]) [nM] | inhibition (Collagenase 3 [8]) | inhibition (U2OS [9]) | viability at 24 h, 2.5 µM [10] [%] | viability at 24 h, 2.5 µM [11] [%] | inhibition [12] [%] | Activity [13] | Activity [14] | viability at 24 h, 2.5 µM [16] [%] | viability at 24 h, 2.5 µM [17] [%] | viability at 24 h, 2.5 µM [18] [%] | Activity [19] | inhibition [21] [%] | inhibition [25] [%] | inhibition [29] [%] | inhibition [30] | inhibition (Stromelysin-1 [31]) [%] | other results
COc1cc(C2Oc3ccc([C@H]4Oc5cc(O)cc(O)c5C(=O)[C@@H]4O)cc3OC2CO)ccc1O (stereo not given in full) | > 50 | > 90 | > 90 | 250 | Active | Active | > 90 | > 90 | > 50 | Non-Toxic | Non-Toxic | > 90 | > 90 | > 90 | Non-Toxic |  |  |  |  |  | inhibition (U2OS [1]): Active; Survival (U2OS [2]): 43 days; TGI (U2OS [3]): 60%; inhibition (U2OS [15]): Active
O=C(/C=C/c1ccc(O)cc1)c1ccc(O)cc1O [ISOLIQUIRITIGENIN] | > 50 | > 90 | > 90 | 14 | Active | Active | > 90 | > 90 | > 50 | Non-Toxic | Non-Toxic | > 90 | > 90 | > 90 | Non-Toxic | > 50 | > 50 | > 50 | Active | > 50 | IC50 [20]: 10 nM; inhibition (Stromelysin-1 [22]): Active; IC50 (Matrilysin): 8 nM; inhibition in vivo at 100 mg/kg (U2OS [23]): 72%; Survival (U2OS [24]): 70 days; TGI (U2OS [26]): 80%; inhibition (U2OS [27]): Active; IC50 (Stromelysin-1 [28]): 81 nM; inhibition [32]: Active; inhibition [33]: Active; IC50 (Interstitial collagenase): 16 nM; inhibition [34]: Active; IC50 [35]: 10 nM; inhibition (U2OS [36]): Active
O=C1C[C@@H](c2ccc(O)cc2)Oc2cc(O)ccc21 | > 50 |  |  |  |  |  |  |  | > 50 |  |  |  |  |  |  | > 50 | > 50 | > 50 |  | > 50 | 
O=C(O)[C@H]1O[C@@H](Oc2cc3oc(-c4ccc(O)cc4)cc(=O)c3c(O)c2O)[C@H](O)[C@@H](O)[C@@H]1O | > 50 |  |  |  |  |  |  |  | > 50 |  |  |  |  |  |  | > 50 | > 50 | > 50 |  |  | 
CNC(=O)[C@@H](NC(=O)[C@H](CC(C)C)[C@H](O)C(=O)NO)C(C)(C)C |  |  |  |  |  |  |  |  |  |  |  |  |  |  |  |  |  |  | Active |  | 
